# Where two headings read alike, the source gives them in different places.
# Molecular target: HCV RNA-dependent RNA polymerase NS5B (Δ21) (Hepatitis C virus genotype 1b, UniProt P26663)
# Experiment: Assay for HCV RNA-dependent RNA polymerase activity (SPA, [3H]-GTP incorporation)
# Assay type: biochemical
# Conditions: 50 nM NS5B (Δ21)
# Method: Inhibitory activity of the present compounds against HCV RNA-dependent RNA polymerase was assayed according to the methods disclosed in United States Patent Application US2004/038993, content of which is incorporated herein by reference; and those described in Ferrari, E.; Wright-Minogue, J.; Fang, J. W. S.; Baroudy, B. M.; Lau, J. Y. N.; Hong, Z. J. Virol. 1999, 73, 1649.
# Briefly, 50 μl reactions containing 20 mM HEPES (pH 7.3), 7.5 mM DTT, 20 units/ml RNasIN, 0.5 μg/ml biotinylated oligoG12, 5 μg/ml polyC, 5 μM GTP, 20 μCi/ml [^3H]-GTP, 10 mM MgCl2, 60 mM NaCl, 100 μg/ml BSA, and 50 nM NS5B (Δ21) were incubated at room temperature for three hours in 96-well plates with or without test compounds. Assay was terminated by the addition of 50 μl 10 mg/ml streptavidin-coated SPA beads supplemented with 100 mM EDTA, and the incorporation of labeled GTP determined by a TopCount Scintillation Counter. IC50 values were calculated from single experiments using 11 serial 2-fold dilutions (0.05-50 μM), and data were considered reliable only when the IC50 value of a positive internal control was within standard deviation range.
# [1] = read-out: Δ21 Activity (IC50 μM), class symbols
# [2] = Δ21 Activity (IC50 μM), class symbols
# [3] = Δ21 Activity (IC50 μM), numeric values
# Sequence of HCV RNA-dependent RNA polymerase NS5B (Δ21) (P26663 2420-2989, stated change not applied): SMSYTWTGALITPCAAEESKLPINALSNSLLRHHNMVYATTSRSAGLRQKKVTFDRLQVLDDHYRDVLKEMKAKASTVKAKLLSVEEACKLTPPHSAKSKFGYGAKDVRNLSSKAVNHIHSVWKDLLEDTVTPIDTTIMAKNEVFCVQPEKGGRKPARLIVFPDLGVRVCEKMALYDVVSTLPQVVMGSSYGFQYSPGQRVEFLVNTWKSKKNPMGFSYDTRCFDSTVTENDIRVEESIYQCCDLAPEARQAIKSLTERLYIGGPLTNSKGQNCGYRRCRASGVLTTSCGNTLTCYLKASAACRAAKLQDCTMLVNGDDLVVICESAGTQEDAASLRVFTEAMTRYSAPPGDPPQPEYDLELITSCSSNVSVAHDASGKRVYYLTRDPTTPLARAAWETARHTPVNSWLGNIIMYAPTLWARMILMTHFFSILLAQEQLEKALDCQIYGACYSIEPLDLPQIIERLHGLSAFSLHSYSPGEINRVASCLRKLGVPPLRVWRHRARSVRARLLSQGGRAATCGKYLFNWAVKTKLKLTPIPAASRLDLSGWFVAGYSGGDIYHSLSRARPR
structure (smiles),measurement,setting,value
NC(=O)c1cc(C(=O)N[C@H]2CCCC[C@@H]2OCc2ccccc2)n(CC(=O)N[C@H]2CCCC[C@@H]2OCc2ccccc2)n1 [Compound 157],IC50,[1],0.1 to 1 µM
O=C(Cn1nc(NC(=O)c2ccccc2)cc1C(=O)N[C@H]1CCCC[C@@H]1OCc1ccccc1)N[C@H]1CCCC[C@@H]1OCc1ccccc1 [Compound 91],IC50,[1],0.1 to 1 µM
O=C(Cn1nc(C(=O)O)cc1C(=O)Nc1ccc(F)cc1OCC1CCCCC1)N[C@H]1CCCC[C@@H]1OCc1ccccc1 [Compound 30],IC50,[2],0.05 to 0.1 µM
O=C(Cn1nc(NS(=O)(=O)c2ccc(Cl)s2)cc1C(=O)N[C@H]1CCCC[C@@H]1OCc1ccccc1)N[C@H]1CCCC[C@@H]1OCc1ccccc1 [Compound 38],IC50,[2],0.05 to 0.1 µM
CC(CNC(=O)c1cc(C(=O)N[C@H]2CCCC[C@@H]2OCc2ccccc2)n(CC(=O)N[C@H]2CCCC[C@@H]2OCc2ccccc2)n1)c1ccccc1 (some centres unmarked) [Compound 117],IC50,[1],0.1 to 1 µM
O=C(Cn1nc(C(=O)O)nc1C(=O)Nc1ccccc1OCc1ccccc1)N[C@H]1CCCC[C@@H]1OCc1ccccc1 [Compound 62],IC50,[1],0.1 to 1 µM
O=C(Cn1nc(NS(=O)(=O)c2ccc(I)cc2)cc1C(=O)N[C@H]1CCCC[C@@H]1OCc1ccccc1)N[C@H]1CCCC[C@@H]1OCc1ccccc1 [Compound 19],IC50,[2],0.05 to 0.1 µM
N#CNC(=O)c1cc(C(=O)N[C@H]2CCCC[C@@H]2OCc2ccccc2)n(CC(=O)N[C@H]2CCCC[C@@H]2OCc2ccccc2)n1 [drawing 254],IC50,[3],0.042 µM
CN(C)C(=O)c1cc(C(=O)N[C@H]2CCCC[C@@H]2OCc2ccccc2)n(CC(=O)NC2CCCC[C@@H]2OCc2ccccc2)n1 (some centres unmarked) [Compound 197],IC50,[2],> 1 µM
CCOC(=O)c1cc(C(=O)N[C@H]2CCCC[C@@H]2OCc2ccccc2)n(CC(=O)Nc2ccc3c(c2)OCO3)n1 [Compound 193],IC50,[2],> 1 µM
CC(C)(C)OC(=O)Nc1cc(C(=O)N[C@H]2CCCC[C@@H]2OCc2ccccc2)n(CC(=O)N[C@H]2CCCC[C@@H]2OCc2ccccc2)n1 [Compound 172],IC50,[2],> 1 µM
Cc1ccc(OCc2ccccc2)c(NC(=O)c2cc(-c3nnn[nH]3)nn2CC(=O)N[C@H]2CCCC[C@@H]2OCc2ccccc2)c1 [drawing 240],IC50,[3],0.02 µM
Nc1ccccc1Oc1ccccc1CNC(=O)c1cc(C(=O)O)nn1CC(=O)N[C@H]1CCCC[C@@H]1OCc1ccccc1 [Compound 209],IC50,[2],> 1 µM
O=C(Cn1nc(O)cc1C(=O)N[C@H]1CCCC[C@@H]1OCc1ccccc1)N[C@H]1CCCC[C@@H]1OCc1ccccc1 [Compound 69],IC50,[1],0.1 to 1 µM
C[C@@H](NC(=O)c1cc(C(=O)NC2CCCCC2OCc2ccccc2)n(CC(=O)N[C@H]2CCCC[C@@H]2OCc2ccccc2)n1)c1cccc2ccccc12 (some centres unmarked) [Compound 74],IC50,[1],0.1 to 1 µM
O=C(Cn1nc(C(=O)NOCC2CC2)cc1C(=O)N[C@H]1CCCC[C@@H]1OCc1ccccc1)N[C@H]1CCCC[C@@H]1OCc1ccccc1 [Compound 72],IC50,[1],0.1 to 1 µM
O=C(Cn1nc(C(=O)NCC(c2ccccc2)c2ccccc2)cc1C(=O)N[C@H]1CCCC[C@@H]1OCc1ccccc1)NC1CCCC[C@@H]1OCc1ccccc1 (some centres unmarked) [Compound 204],IC50,[2],> 1 µM
O=C(Cn1nc(C(=O)N2CCOCC2)cc1C(=O)N[C@H]1CCCC[C@@H]1OCc1ccccc1)N[C@H]1CCCC[C@@H]1OCc1ccccc1 [Compound 150],IC50,[1],0.1 to 1 µM
O=C(Cn1nc(C(=O)NC2CCc3ccccc32)cc1C(=O)N[C@H]1CCCC[C@@H]1OCc1ccccc1)N[C@H]1CCCC[C@@H]1OCc1ccccc1 (some centres unmarked) [Compound 107],IC50,[1],0.1 to 1 µM
CC(C)(NC(=O)c1cc(C(=O)N[C@H]2CCCC[C@@H]2OCc2ccccc2)n(CC(=O)N[C@H]2CCCC[C@@H]2OCc2ccccc2)n1)c1ccccc1 [Compound 52],IC50,[1],0.1 to 1 µM
O=C(Cn1nc(-c2nnn[nH]2)cc1C(=O)N[C@H]1CCCC[C@@H]1OCc1ccccc1)N[C@H]1CCCC[C@@H]1OCc1ccccc1,IC50,[3],0.05 µM
COc1ccc(S(=O)(=O)Nc2cc(C(=O)N[C@H]3CCCC[C@@H]3OCc3ccccc3)n(CC(=O)N[C@H]3CCCC[C@@H]3OCc3ccccc3)n2)cc1 [Compound 41],IC50,[2],0.05 to 0.1 µM
C=CCOc1ccccc1NC(=O)Cn1nc(C(=O)O)cc1C(=O)N[C@H]1CCCC[C@@H]1OCc1ccccc1 [Compound 171],IC50,[2],> 1 µM
Cc1ccc(OCC2CCCCC2)c(NC(=O)c2cc(C(=O)NC#N)nn2CC(=O)N[C@H]2CCCC[C@@H]2OCc2ccccc2)c1 [drawing 243],IC50,[3],0.037 µM
CCOC(=O)CNC(=O)Nc1cc(C(=O)N[C@H]2CCCC[C@@H]2OCc2ccccc2)n(CC(=O)N[C@H]2CCCC[C@@H]2OCc2ccccc2)n1 [Compound 183],IC50,[2],> 1 µM
CCCCC(CC)CNC(=O)c1cc(C(=O)N[C@H]2CCCC[C@@H]2OCc2ccccc2)n(CC(=O)N[C@H]2CCCC[C@@H]2OCc2ccccc2)n1 (some centres unmarked) [Compound 194],IC50,[2],> 1 µM
O=C(Cn1nc(C(=O)NOCc2ccccc2)cc1C(=O)N[C@H]1CCCC[C@@H]1OCc1ccccc1)N[C@H]1CCCC[C@@H]1OCc1ccccc1 [Compound 53],IC50,[1],0.1 to 1 µM
O=C(Cn1nc(C(=O)NCc2cccc(Cl)c2)cc1C(=O)N[C@H]1CCCC[C@@H]1OCc1ccccc1)N[C@H]1CCCC[C@@H]1OCc1ccccc1 [Compound 70],IC50,[1],0.1 to 1 µM
O=C(Cn1nc(C(=O)NCc2ccccc2Cl)cc1C(=O)N[C@H]1CCCC[C@@H]1OCc1ccccc1)N[C@H]1CCCC[C@@H]1OCc1ccccc1 [Compound 81],IC50,[1],0.1 to 1 µM
Cc1ccc(OCC2CC2)c(NC(=O)c2cc(C(=O)O)nn2CC(=O)N[C@H]2CCCC[C@@H]2OCc2ccccc2)c1 [Compound 76],IC50,[1],0.1 to 1 µM
CCOC(=O)c1cc(C(=O)N[C@H]2CCCC[C@@H]2OCc2ccccc2)n(CC(=O)Nc2cc(C)ccc2OCC2CCCC2)n1 [Compound 99],IC50,[1],0.1 to 1 µM
CC(C)(C)OC(=O)CNC(=O)c1cc(C(=O)N[C@H]2CCCC[C@@H]2OCc2ccccc2)n(CC(=O)N[C@H]2CCCC[C@@H]2OCc2ccccc2)n1 [Compound 105],IC50,[1],0.1 to 1 µM
N#CNC(=O)c1cc(C(=O)Nc2ccccc2OCc2ccccc2)n(CC(=O)N[C@H]2CCCC[C@@H]2OCc2ccccc2)n1 [Compound 6],IC50,[2],< 0.05 µM
Cc1ccc(OCC2CCCCC2)c(NC(=O)c2cc(C(=O)O)nn2CC(=O)N[C@H]2CCCC[C@@H]2OCc2ccccc2)c1 [Compound 5],IC50,[2],< 0.05 µM
O=C(Cn1nc(C(=O)NC2CCCC2)cc1C(=O)N[C@H]1CCCC[C@@H]1OCc1ccccc1)N[C@H]1CCCC[C@@H]1OCc1ccccc1 [Compound 128],IC50,[1],0.1 to 1 µM
CC(CCc1ccccc1)NC(=O)c1cc(C(=O)N[C@H]2CCCC[C@@H]2OCc2ccccc2)n(CC(=O)N[C@H]2CCCC[C@@H]2OCc2ccccc2)n1 (some centres unmarked) [Compound 101],IC50,[1],0.1 to 1 µM
O=C(Cn1nc(NS(=O)(=O)C(F)(F)F)cc1C(=O)N[C@H]1CCCC[C@@H]1OCc1ccccc1)N[C@H]1CCCC[C@@H]1OCc1ccccc1 [Compound 26],IC50,[2],0.05 to 0.1 µM
CC(C)(O)c1cc(C(=O)N[C@H]2CCCC[C@@H]2OCc2ccccc2)n(CC(=O)N[C@H]2CCCC[C@@H]2OCc2ccccc2)n1 [Compound 190],IC50,[2],> 1 µM
CCOC(=O)c1cc(C(=O)N[C@H]2CCCC[C@@H]2OCc2ccccc2)n(CC(=O)N[C@H]2CCCC[C@@H]2OCc2ccccc2)n1 [Compound 49],IC50,[1],0.1 to 1 µM
O=C(Cn1nc(C(=O)O)nc1C(=O)N[C@H]1CCCC[C@@H]1OCc1ccccc1)N[C@H]1CCCC[C@@H]1OCc1ccccc1 [Compound 66],IC50,[1],0.1 to 1 µM
O=C(Cn1nc(NS(=O)(=O)c2ccc(Cl)cc2)cc1C(=O)N[C@H]1CCCC[C@@H]1OCc1ccccc1)N[C@H]1CCCC[C@@H]1OCc1ccccc1 [drawing 250],IC50,[3],0.036 µM
O=C(Cn1nc(NS(=O)(=O)c2cccc(Cl)c2)cc1C(=O)N[C@H]1CCCC[C@@H]1OCc1ccccc1)N[C@H]1CCCC[C@@H]1OCc1ccccc1 [Compound 80],IC50,[1],0.1 to 1 µM
Cc1ccc(OCC2CCCC2)c(NC(=O)c2cc(C(=O)O)nn2CC(=O)N[C@H]2CCCC[C@@H]2OCc2ccccc2)c1 [drawing 241],IC50,[3],0.023 µM
O=C(Cn1nc(C(=O)N2CCCC3CC=CC=C32)cc1C(=O)N[C@H]1CCCC[C@@H]1OCc1ccccc1)N[C@H]1CCCC[C@@H]1OCc1ccccc1 (some centres unmarked) [Compound 86],IC50,[1],0.1 to 1 µM
CCOC(=O)c1cc(C(=O)N[C@H]2CCCC[C@@H]2OCc2ccccc2)n(CS(=O)(=O)N[C@H]2CCCC[C@@H]2OCc2ccccc2)n1 [Compound 152],IC50,[1],0.1 to 1 µM
O=C(Cn1nc(C(=O)O)cc1C(=O)Nc1ccc(F)cc1OCC1CCCCC1)N[C@H]1CCCC[C@@H]1OCc1ccccc1 [Compound 10],IC50,[2],< 0.05 µM
O=C(Cn1nc(C(=O)O)cc1C(=O)Nc1cc(Br)ccc1OCC1CCCCC1)N[C@H]1CCCC[C@@H]1OCc1ccccc1 [drawing 251],IC50,[3],0.037 µM
"O=C(Cn1nc(-c2nnn[nH]2)cc1C(=O)N[C@H]1CCCC[C@@H]1OCc1ccccc1)N[C@H]1CCCC[C@@H]1OCc1ccccc1 (stereo in doubt) [Compound 18, 2-[(2-benzyloxy-cyclohexylcarbamoyl)-methyl]-5-(1H-tetrazol-5-yl)-2H-pyrazole-3-carboxylic acid (2-benzyloxy-cyclohexyl)-amide]",IC50,[2],0.05 to 0.1 µM
CN(C)c1cccc2c(S(=O)(=O)Nc3cc(C(=O)N[C@H]4CCCC[C@@H]4OCc4ccccc4)n(CC(=O)N[C@H]4CCCC[C@@H]4OCc4ccccc4)n3)cccc12 [Compound 113],IC50,[1],0.1 to 1 µM
CCOC(=O)c1nc(C(=O)N[C@H]2CCCC[C@@H]2OCc2ccccc2)n(CC(=O)N[C@H]2CCCC[C@@H]2OCc2ccccc2)n1 [Compound 141],IC50,[1],0.1 to 1 µM

# — patent publication US7425640B2, “Substituted 5-carboxyamide pyrazoles and [1,2,4]triazoles as antiviral agents” (priority 2004, dated 2008)
